Where a name gives a salt, the structure may show the parent alone. Read-outs that look alike come from different tables or passages of the source.
Experiments:
NMDA induced convulsions = assay: inhibition of NMDA induced convulsions in the mouse (procedure of Chiamulera C et al.); assay type: in vivo
Description: In this test the ability of the compound to inhibit the generalized seizures induced by an intracerebroventricular injection of NMDA in mice was examined at a number of dose levels. […] This expressed as mg/kg is referred to as the ED50 value.

[1] = target: T1, strychnine insensitive glycine binding site located on the NMDA receptor complex (Rattus norvegicus, UniProt P35439); assay: biochemical
T1 construct: from tissue

[2] = mouse, intravenous, NMDA given intracerebroventricularly, read-out: ED50 (dose required to protect 50% of the animals from the convulsive action of NMDA), iv
[3] = mouse, oral, NMDA given intracerebroventricularly, read-out: ED50 (dose required to protect 50% of the animals from the convulsive action of NMDA), po

Structure (SMILES)	Ki [1]	other results
O=C(/C=C/c1c(C(=O)[O-])[nH]c2cc(Cl)cc(Cl)c12)NC12CC3CC(CC(C3)C1)C2.[Na+]		ED50 (NMDA induced convulsions; Mus musculus, iv, read-out: ED50 (dose required to protect 50% of the animals from the convulsive action of NMDA), iv): 0.02 mg/kg; ED50 (NMDA induced convulsions; Mus musculus, po, read-out: ED50 (dose required to protect 50% of the animals from the convulsive action of NMDA), po): 5.47 mg/kg
O=C(/C=C/c1c(C(=O)O)[nH]c2cc(Cl)cc(Cl)c12)N[C@@H]1C[C@H]2CC[C@@H]1C2 (relative stereo) [Example 10b, (E)-3-(2'-exo-2-norbornylcarbamoyl)ethenyl)-4,6-dichloroindole-2-carboxylicacid sodium salt]	20 nM	ED50 (NMDA induced convulsions; [2]): 0.01 mg/kg; ED50 (NMDA induced convulsions; [3]): 11.1 mg/kg
O=C(/C=C/c1c(C(=O)O)[nH]c2cc(Cl)cc(Cl)c12)N[C@H]1C[C@H]2CC[C@@H]1C2 (relative stereo) [Example 11, (E) 3-[2-endo-2-norbornylcarbamoyl)ethenyl]4,6-dichloroindole-2-carboxylic acid sodium salt]	10 nM	
O=C(/C=C/c1c(C(=O)O)[nH]c2cc(Cl)cc(Cl)c12)NC12CC3CC(CC1C3)C2 [Example 14, (E) 3-[2'-(noradamantyl-3"-aminocarbonyl)ethenyl]-4,6-dichloroindole-2-carboxylic acid sodium salt]	26.3 nM	ED50 (NMDA induced convulsions; [2]): 0.05 mg/kg; ED50 (NMDA induced convulsions; [3]): 6 mg/kg
CC1(C)[C@@H]2CC[C@@]1(C)[C@@H](NC(=O)/C=C/c1c(C(=O)O)[nH]c3cc(Cl)cc(Cl)c13)C2 [Example 16, (E) 3-[2'-(1"-R-bornyl-2"-aminocarbonyl)ethenyl]-4,6-dichloroindole-2 carboxylic acid sodium salt]	39.8 nM	
O=C(/C=C/c1c(C(=O)O)[nH]c2cc(Cl)cc(Cl)c12)NC1C2CC3CC(C2)CC1C3 (stereo not drawn) [Example 17, (E) 3-[2'-(2"-adamantylaminocarbonyl)ethenyl]-4,6-dichloroindole-2-carboxylic acid sodium salt]	25.1 nM	
O=C(/C=C/c1c(C(=O)[O-])[nH]c2cc(Cl)cc(Cl)c12)NC12CC3CC(CC(C3)C1)C2.[Na+] [sodium salt]	63.1 nM	

Source: patent US5686461A, “Indole derivatives” (Glaxo Wellcome S.p.A., priority 1993, dated 1997)
